Measurements as given in paper PMC11118832 (Biomolecules, 2024).
Square brackets hold non-standard residues; d marks the D form. Ends that are not written are not given here. Peptide text beside a SMILES is read from it. 1Nal = N[C@@H](Cc1cccc2ccccc12)C(=O)O; NMeY = CN[C@@H](Cc1ccc(O)cc1)C(=O)O; hLeu = CC(C)CC[C@H](N)C(=O)O; NMeA = CN[C@@H](C)C(=O)O; Nle = CCCC[C@H](N)C(=O)O; Orn = NCCC[C@H](N)C(=O)O

Target: T1, PD-1/PD-L1 (Homo sapiens, UniProt Q15116)
T1 construct: this kit uses ectodomains of PD-1 and PD-L1 that are expressed with orthogonal fusion tags (Tag-1 and Tag-2); purchased CisBio (currently Perkin-Elmer, Bedford, MA)
Test: In vitro time-resolved FRET PD-1/PD-L1 binding assay (CisBio kit)
Settings: CisBio PD-1/PD-L1 binding kit, TR FRET, 96-well; for EC50: serial dilutions in triplicate, NI = no inhibition at maximum concentration tested (* 5 μM, ** 50 μM), read-out: EC50 (Supplementary Table S1; inhibition of PD-1/PD-L1 binding by in vitro TR-FRET assay); for IC50: 4-fold serial dilutions in triplicate, freshly dissolved peptides, read-out: IC50, inhibition of PD-1/PD-L1 binding (TR FRET assay)
Procedure: Commercial PD-1/PD-L1 binding assay kit (CisBio, currently Perkin-Elmer, Bedford, MA) for time resolve fluorescent energy transfer (FRET) was used to assess peptides binding to PD-1. The assay for peptide screening was performed in a 96-well format (normal pressure), starting with 4-fold serial dilutions of each peptide in triplicate. No-peptide triplicate wells were used to assess fluorescent energy transfer in the absence of inhibition, and no-PD-1/PD-L1 triplicate wells were used to assess the background fluorescent energy transfer in the absence of PD-1/PD-L1 complexes. More detailed concentration dependences were obtained for selected peptides. Only freshly dissolved peptides were used in the assay. Various QSAR (quantitative structure activity relationship) hypotheses were tested by synthesizing batches of 10–12 peptides. In total, over one hundred candidates in ten iterations were screened for their ability to inhibit in vitro PD-1/PD-L1 binding using the commercial PD-1/PD-L1 binding assay kit (CisBio, currently Perkin-Elmer). Briefly, this kit uses ectodomains of PD-1 and PD-L1 that are expressed with orthogonal fusion tags (Tag-1 and Tag-2). It also includes two antibodies to selectively interact with these tags. The antibody against one tag is labeled with fluorescent moiety, which serves as a donor, while the other antibody is labeled with fluorescent moiety, which serves as an acceptor in fluorescent resonance energy transfer (FRET). When the complex is formed and probed with both anti-Tag-1 and anti-Tag-2 antibodies, donor and acceptor are sufficiently close, and FRET can be detected in a time-resolved (TR) manner. Inhibitors of PD-1/PD-L1 interactions prevent complex formation, leading to a decrease in TR FRET in a concentration-dependent manner, as shown in Figure 2 for four representative peptide inhibitors. Initial fourfold dilutions are exemplified by data for peptides B5.11 and B5.6 (panels A and B); examples of the more detailed follow-up concentration dependences are shown for peptides B2.4 and B2.22 (panels C and D). The potency of the inhibitors is then characterized by IC50, a concentration that inhibits TR FRET by 50%, allowing for a facile comparison of different inhibitors (Figure 2E).

Row | Molecule | EC50 [µM] | IC50 [µM]
1 | CCCC[C@H](NC(C)=O)C(=O)N[C@H](C(=O)N[C@@H](CC(C)C)C(=O)N[C@H](C(=O)N[C@H](C(=O)N[C@H](C(=O)NCC(=O)N[C@@H](C)C(=O)N[C@@H](C)C(=O)N[C@@H](Cc1c[nH]c2ccccc12)C(=O)N[C@@H](CC(=O)O)C(=O)N[C@@H](Cc1ccc(O)cc1)C(=O)N[C@@H](CCCCN)C(=O)N[C@@H](CCCNC(=N)N)C(N)=O)C(C)C)[C@@H](C)CC)C(C)C)C(C)C [B2.5] (Ac-[Nle]VLVIVGAAWDYKR-NH2) | 11 | –
2 | CC(=O)N[C@@H](CCC(C)C)C(=O)N[C@H](C(=O)N[C@@H](CCC(C)C)C(=O)N[C@H](C(=O)NCC(=O)N[C@@H](C)C(=O)N[C@@H](C)C(=O)N[C@@H](Cc1c[nH]c2ccccc12)C(=O)N[C@@H](CC(=O)O)C(=O)N[C@@H](Cc1ccc(O)cc1)C(=O)N[C@@H](CCCCN)C(=O)N[C@@H](Cc1ccc(O)cc1)C(N)=O)C(C)C)C(C)C [B3.3] (Ac-[hLeu]V[hLeu]VGAAWDYKY-NH2) | 35 | –
3 | CCCC[C@H](NC(=O)[C@@H](NC(=O)[C@H](CCCNC(=N)N)NC(C)=O)C(C)C)C(=O)N[C@H](C(=O)N[C@H](C(=O)N[C@H](C(=O)NCC(=O)N[C@@H](C)C(=O)N[C@@H](CCCN)C(=O)N[C@@H](Cc1c[nH]c2ccccc12)C(=O)N[C@@H](CC(=O)O)C(=O)N[C@@H](Cc1ccc(O)cc1)C(=O)N[C@@H](CCCCN)C(=O)N[C@@H](Cc1ccc(O)cc1)C(N)=O)C(C)C)[C@@H](C)CC)C(C)C [B4.9] (Ac-RV[Nle]VIVGA[Orn]WDYKY-NH2) | 5 | –
4 | Ac-YVLVIVGAAWDKKY-NH2 [B2.26] | 22 | –
5 | Ac-LVDVGAAWDYKY-NH2 [B3.16] | > 50 | –
6 | CC[C@H](C)[C@H](NC(=O)[C@@H](NC(=O)[C@H](CC(C)C)NC(=O)[C@@H](NC(=O)[C@H](CCCNC(=N)N)NC(C)=O)C(C)C)C(C)C)C(=O)N[C@H](C(=O)NCC(=O)N[C@@H](C)C(=O)N[C@@H](C)C(=O)N[C@@H](CCC(C)C)C(=O)N[C@@H](CC(=O)O)C(=O)N[C@@H](Cc1ccc(O)cc1)C(=O)N[C@@H](CCCCN)C(=O)N[C@@H](Cc1ccc(O)cc1)C(N)=O)C(C)C [B2.32] (Ac-RVLVIVGAA[hLeu]DYKY-NH2) | 22 | –
7 | Ac-LVIVGAAWDYKR-NH2 [B3.4] | 21 | –
8 | CCCC[C@H](NC(=O)[C@@H](NC(=O)[C@H](CCCNC(=N)N)NC(C)=O)C(C)C)C(=O)N[C@H](C(=O)N[C@H](C(=O)N[C@H](C(=O)NCC(=O)N[C@@H](C)C(=O)N[C@@H](C)C(=O)N[C@@H](Cc1c[nH]c2ccccc12)C(=O)N[C@@H](CC(=O)O)C(=O)N[C@@H](Cc1ccc(O)cc1)C(=O)N[C@@H](CCCCN)C(=O)N[C@@H](Cc1ccc(O)cc1)C(N)=O)C(C)C)[C@@H](C)CC)C(C)C [B2.4] (Ac-RV[Nle]VIVGAAWDYKY-NH2) | 0.5 | 0.5
9 | Ac-DVIVGASWDYKY-NH2 [B7.3] | > 5 | –
10 | Ac-EVIVGAAWDYKY-NH2 [B5.12] | > 5 | –
11 | Ac-RVLVIVGAAWDYKR-NH2 [B2.7] | 55 | –
12 | Ac-DDIVGAAWDYKY-NH2 [B7.6] | > 5 | –
13 | CCCC[C@H](NC(=O)[C@@H](NC(=O)[C@@H](N)CCCNC(=N)N)C(C)C)C(=O)N[C@H](C(=O)N[C@H](C(=O)N[C@H](C(=O)NCC(=O)N[C@@H](C)C(=O)N[C@@H](C)C(=O)N[C@@H](Cc1c[nH]c2ccccc12)C(=O)N[C@@H](CC(=O)O)C(=O)N[C@@H](Cc1ccc(O)cc1)C(=O)N[C@@H](CCCCN)C(=O)N[C@@H](Cc1ccc(O)cc1)C(=O)O)C(C)C)[C@@H](C)CC)C(C)C [B4.7] (H-RV[Nle]VIVGAAWDYKY-OH; N-terminus and C-terminus assumed) | > 5 | –
14 | Ac-DVIDGAAWDYKR-NH2 [B8.23] | > 5 | –
15 | Ac-DAAWDYKY-NH2 [B9.1] | > 5 | –
16 | Ac-DVIDGADWDYKY-NH2 [B8.20] | > 5 | –
17 | RVLVIVGAAWDYKY [B2.28] | 11 | –
18 | IVGAAWDYKY [B3.12] | > 50 | –
19 | Ac-LVWVGAAWDRKY-NH2 [B3.19] | 5 | –
20 | Ac-RVWVIVGAAWDYKY-NH2 [B2.12] | 20 | –
21 | CCCC[C@H](NC(C)=O)C(=O)N[C@H](C(=O)N[C@H](C(=O)N[C@H](C(=O)NCC(=O)N[C@@H](C)C(=O)N[C@@H](C)C(=O)N[C@@H](Cc1c[nH]c2ccccc12)C(=O)N[C@@H](CC(=O)O)C(=O)N[C@@H](CCCNC(=N)N)C(=O)N[C@@H](CCCCN)C(=O)N[C@@H](Cc1ccc(O)cc1)C(N)=O)C(C)C)[C@@H](C)CC)C(C)C [B4.3] (Ac-[Nle]VIVGAAWDRKY-NH2) | > 5 | –

Row | Molecule | EC50 [µM] | IC50 [µM]
22 | CCCC[C@H](NC(=O)[C@@H](NC(=O)[C@H](CC(=O)O)NC(C)=O)C(C)C)C(=O)N[C@H](C(=O)NCC(=O)N[C@@H](C)C(=O)N[C@@H](C)C(=O)N[C@@H](Cc1c[nH]c2ccccc12)C(=O)N[C@@H](CC(=O)O)C(=O)N[C@@H](Cc1ccc(O)cc1)C(=O)N[C@@H](CCCCN)C(=O)N[C@@H](Cc1ccc(O)cc1)C(N)=O)C(C)C [B5.8] (Ac-DV[Nle]VGAAWDYKY-NH2) | > 5 | –
23 | Ac-EAWDYKY-NH2 [B9.4] | > 5 | –
24 | Ac-DVIYGAAWDYKYLT-NH2 [B7.11] | > 5 | –
25 | Ac-DVIVGAAWDYKYLY-NH2 [B7.4] | > 5 | –
26 | CC[C@H](C)[C@H](NC(=O)[C@@H](NC(=O)[C@H](CC(C)C)NC(C)=O)C(C)C)C(=O)N[C@H](C(=O)NCC(=O)N(C)[C@@H](C)C(=O)N[C@@H](C)C(=O)N[C@@H](Cc1c[nH]c2ccccc12)C(=O)N[C@@H](CC(=O)O)C(=O)N[C@@H](Cc1ccc(O)cc1)C(=O)N[C@@H](CCCCN)C(=O)N(C)[C@@H](Cc1ccc(O)cc1)C(N)=O)C(C)C [B3.10] (Ac-LVIVG[NMeA]AWDYK[NMeY]-NH2) | > 50 | –
27 | Ac-LVIVGARWDYKR-NH2 [B3.7] | 26 | –
28 | CCCC[C@H](N)C(=O)N[C@H](C(=O)N[C@H](C(=O)N[C@H](C(=O)NCC(=O)N[C@@H](C)C(=O)N[C@@H](C)C(=O)N[C@@H](Cc1c[nH]c2ccccc12)C(=O)N[C@@H](CC(=O)O)C(=O)N[C@@H](Cc1ccc(O)cc1)C(=O)N[C@@H](CCCCN)C(=O)N[C@@H](CCCNC(=N)N)C(=O)O)C(C)C)[C@@H](C)CC)C(C)C [B4.14] (H-[Nle]VIVGAAWDYKR-OH; N-terminus and C-terminus assumed) | > 5 | –
29 | Ac-RVLVWVGAAWDYKY-NH2 [B2.18] | 1 | –
30 | Ac-DVIVGAAWDYKYLT-NH2 [B7.1] | > 5 | –
31 | Ac-LEIKGAEWDYKY-NH2 [B3.18] | > 50 | –
32 | Ac-AWDYKY-NH2 [B2.19] | > 50 | –
33 | Ac-DVIYGAAWDYKY-NH2 [B7.10] | > 5 | –
34 | CCCC[C@H](NC(C)=O)C(=O)N[C@H](C(=O)N[C@@H](CC(=O)O)C(=O)N[C@H](C(=O)N[C@H](C(=O)N[C@H](C(=O)NCC(=O)N[C@@H](C)C(=O)N[C@@H](C)C(=O)N[C@@H](Cc1c[nH]c2ccccc12)C(=O)N[C@@H](CC(=O)O)C(=O)N[C@@H](Cc1ccc(O)cc1)C(=O)N[C@@H](CCCCN)C(=O)N[C@@H](Cc1ccc(O)cc1)C(N)=O)C(C)C)[C@@H](C)CC)C(C)C)C(C)C [B5.5] (Ac-[Nle]VDVIVGAAWDYKY-NH2) | > 5 | –
35 | CCCC[C@H](N)C(=O)N[C@H](C(=O)N[C@@H](Cc1c[nH]c2ccccc12)C(=O)N[C@H](C(=O)NCC(=O)N[C@@H](C)C(=O)N[C@@H](C)C(=O)N[C@@H](Cc1c[nH]c2ccccc12)C(=O)N[C@@H](CC(=O)O)C(=O)N[C@@H](CCCNC(=N)N)C(=O)N[C@@H](CCCCN)C(=O)N[C@@H](Cc1ccc(O)cc1)C(=O)O)C(C)C)C(C)C [B4.13] (H-[Nle]VWVGAAWDRKY-OH; N-terminus and C-terminus assumed) | > 5 | –
36 | Ac-DVLDGAAWDYKY-NH2 [B8.13] | > 5 | –
37 | CC[C@H](C)[C@H](NC(=O)[C@@H](NC(=O)[C@H](CC(=O)O)NC(C)=O)C(C)C)C(=O)N[C@H](C(=O)NCC(=O)N[C@@H](C)C(=O)N[C@@H](C)C(=O)N[C@@H](Cc1cccc2ccccc12)C(=O)N[C@@H](CC(=O)O)C(=O)N[C@@H](Cc1ccc(O)cc1)C(=O)N[C@@H](CCCCN)C(=O)N[C@@H](Cc1ccc(O)cc1)C(N)=O)C(C)C [B6.1] (Ac-DVIVGAA[1Nal]DYKY-NH2) | > 5 | –
38 | Ac-GADYKRITVKVN-NH2 [PL-120, reference compound] | 35 | –
39 | Ac-DVIDGAAWDRKY-NH2 [B8.22] | > 5 | –
40 | Ac-RSMISYGGADDYK-NH2 [B1.1] | 24 | –
41 | Ac-LVWVGAAWDYKY-NH2 [B3.2] | > 50 | –
42 | Ac-DVIVGAAWDYKY-NH2 [B3.15] | 0.13 | 0.13
